Test results as given in ChEMBL document CHEMBL5236578, “Structure-activity relationship study of 4,5-didehydroguadiscine, an aporphine alkaloid showing potent melanogenesis-inhibitory activity in B16 melanoma cells” (Bioorg Med Chem Lett, 2022).
Counter-ions that a name gives are not always drawn.

test: Anti-melanogenic activity in theophylline-stimulated mouse B16 melanoma 4A5 cells assessed as inhibition of melanogenesis; type: functional, cell-based

Row | Structure (SMILES) | IC50
1 | CC(C)(c1ccccc1)c1nccc2ccccc12 | > 30 µM
2 | CC(C)(c1ccccc1)c1nccc2cc3c(cc12)OCO3 | > 30 µM
3 | COc1cccc(C(C)(C)c2nccc3cc4c(cc23)OCO4)c1 | > 30 µM
4 | COc1ccc2ccnc(C(C)(C)c3ccccc3)c2c1 | 18.1 µM
5 | COc1cc2c3c(c1OC)-c1ccccc1C[C@H]3N(C)CC2 [NUCIFERINE HYDROCHLORIDE] | 7.1 µM
6 | OC[C@H]1O[C@@H](Oc2ccc(O)cc2)[C@H](O)[C@@H](O)[C@@H]1O [ARBUTIN] | 174 µM
7 | COc1cccc(C(C)(C)c2nccc3cc(OC)ccc23)c1 | > 30 µM
8 | COc1ccc2c(C(C)(C)c3ccccc3)nccc2c1 | > 30 µM

Continued by falling IC50, values first:

Row | IC50 | Structure (SMILES)
9 | 7.5 µM | COc1ccc2c(c1)C(C)(C)c1nccc3cc(OC)cc-2c13
10 | 6.7 µM | CC1(C)c2ccccc2-c2c3c(cc4ccnc1c24)OCO3
11 | 6.5 µM | COc1cc2c(cc1OC)[C@@H](Cc1ccc(O)cc1)N(C)CC2
12 | 5 µM | COc1cc2c3c(nccc3c1)C(C)(C)c1ccccc1-2
13 | 4.9 µM | COc1ccc2c(c1)C(C)(C)c1nccc3cc4c(c-2c13)OCO4
14 | 4 µM | COc1ccc2ccnc3c2c1-c1ccccc1C3(C)C
15 | 3.1 µM | CC1(C)c2ccccc2-c2cccc3ccnc1c23

test: Potency index, ratio of arbutin IC50 to test compound IC50 for anti-melanogenic activity in theophylline-stimulated mouse B16 melanoma 4A5 cells assessed as inhibition of melanogenesis; type: functional

Row | Structure (SMILES) | Ratio IC50
16 | COc1ccc2c(c1)C(C)(C)c1nccc3cc4c(c-2c13)OCO4 | 40
